How the values were obtained:
[1] = test system: periodontal ligament cells; test: Attachment and spread of periodontal ligament cells; format: cell-based; settings: for attachment and spread of cells from the periodontal ligament: compared with gingival fibroblasts
Excerpt: Cementum attachment protein (CAP) is a protein of molecular mass approximately 56 kDa present in cementum and specifically expressed by mineralized tissue-forming cells of the periodontium. […] The protein has sequences containing Gly-X-Y repeats typical of a collagen helix. SEQ ID NOS 1-5 are fragments of CAP. One 17-amino-acid peptide, SEQ ID NO 2, has 82% homology with a type XII collagen domain. […] Although another 19-amino-acid-long peptide (SEQ ID NO 3) has 95% homology to bovine al (I) collagen, two other peptides, SEQ ID NOS 4 and 5, are only 79% and 68% homologous.

[2] = test system: periodontal cells; settings: CAP-coated surfaces; Pitaru et al. 1995; cited from earlier work

Substance | capacity to promote attachment of periodontal cells after bacterial collagenase ([1]; bacterial collagenase digestion) | capacity to promote attachment of periodontal cells after chondroitinase ABC digestion ([1]; chondroitinase ABC digestion) | attachment and spread of cells from the periodontal ligament [1] | migration and attachment of periodontal cells versus gingival fibroblasts [2]
Cementum attachment protein [CAP] | eliminate the capacity of CAP to promote attachment of periodontal cells | had no effect | more efficiently than that of gingival fibroblasts | migrate in response to and attach better to CAP-coated surfaces than do gingival fibroblasts
type XIl collagen: collagen type with a domain 82% homologous to SEQ ID NO 2 of CAP [reference compound] | – | – | does not promote the attachment of periodontal ligament cells | –

From patent publication US7071162B1, “Combined use of cementum attachment protein and cyclosporin a for improved attachment of dental and orthopedic implants” (priority 1997, dated 2006)
